Experimental findings from PubChem BioAssay AID328 (DTP/NCI, 2004) are described below.

For this assay, the system named is BDF1 mice, P388 leukemia ip, median survival T/C. The assay can be described thus: NCI In Vivo Anticancer Drug Screen. Data for tumor model P388 Leukemia (intraperitoneal) in B6D2F1 (BDF1) mice. The conditions noted are these: endpoint: median survival time, higher = longer survival. In outline:
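Vehicle-dosed animals serve as the reference; survival of compound-dosed, tumour-implanted mice is divided by it.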

Where [1] appears, read: dose: 2.0 mg/kg/injection, schedule: Q01DX009 (ip), vehicle: saline.
Where [2] appears, read: dose: 100.0 mg/kg/injection, schedule: Q01DX009 (ip), vehicle: saline.
Where [3] appears, read: dose: 200.0 mg/kg/injection, schedule: Q01DX009 (ip), vehicle: saline.

Values joined by “and” are separate entries in the source; they are usually repeats but may differ in a detail not shown here. Equal values may be shown once. Toxic doses and inconclusive results are not listed.

For `Nc1ncnc2c1ncn2C(C=O)OC(C=O)CO` (stereo unspecified), the T/C by setting is: (dose: 0.88 mg/kg/injection, schedule: Q01DX009 (ip), vehicle: saline) 106 % of control; (dose: 1.0 mg/kg/injection, schedule: Q01DX009 (ip), vehicle: carboxymethylcellulose (CMC)) 119 % of control; (dose: 1.33 mg/kg/injection, schedule: Q01DX009 (ip), vehicle: saline) 116 % of control; under setting [1], 119 % of control; (dose: 2.5 mg/kg/injection, schedule: Q04DX003 (ip), vehicle: carboxymethylcellulose (CMC)) 113 % of control; (dose: 3.3 mg/kg/injection, schedule: Q01DX009 (ip), vehicle: saline) 171 % of control. For the same compound, the T/C is, setting by setting: (dose: 4.0 mg/kg/injection, schedule: Q01DX009 (ip), vehicle: carboxymethylcellulose (CMC)) 158 % of control; (dose: 5.0 mg/kg/injection, schedule: Q01DX009 (ip), vehicle: saline) 261 % of control; (dose: 5.0 mg/kg/injection, schedule: Q04DX003 (ip), vehicle: carboxymethylcellulose (CMC)) 122 % of control; (dose: 5.56 mg/kg/injection, schedule: Q01DX009 (ip), vehicle: saline) 150 % of control; (dose: 7.5 mg/kg/injection, schedule: Q01DX009 (ip), vehicle: saline) 152 % of control; (dose: 8.0 mg/kg/injection, schedule: Q01DX009 (ip), vehicle: carboxymethylcellulose (CMC)) 97 % of control. The T/C by setting is: (dose: 8.33 mg/kg/injection, schedule: Q01DX009 (ip), vehicle: saline) 161 % of control; (dose: 10.0 mg/kg/injection, schedule: Q04DX003 (ip), vehicle: carboxymethylcellulose (CMC)) 153 % of control; (dose: 12.5 mg/kg/injection, schedule: Q01DX009 (ip), vehicle: saline) 209 % of control; (dose: 16.0 mg/kg/injection, schedule: Q01DX009 (ip), vehicle: carboxymethylcellulose (CMC)) 184 % of control; (dose: 18.7 mg/kg/injection, schedule: Q01DX009 (ip), vehicle: saline) 152 % of control; (dose: 20.0 mg/kg/injection, schedule: Q04DX003 (ip), vehicle: carboxymethylcellulose (CMC)) 160 % of control. For the same compound, the T/C runs as follows: (dose: 40.0 mg/kg/injection, schedule: Q04DX003 (ip), vehicle: carboxymethylcellulose (CMC)) 188 % of control; (dose: 80.0 mg/kg/injection, schedule: Q04DX003 (ip), vehicle: carboxymethylcellulose (CMC)) 179 % of control.

With `Nc1ccn[nH]1`, the T/C is 100 % of control under setting [2]; 100 % of control (dose: 100.0 mg/kg/injection, schedule: Q04DX003 (ip), vehicle: saline); 100 % of control under setting [3]; 109 % of control (dose: 200.0 mg/kg/injection, schedule: Q04DX003 (ip), vehicle: saline); 118 % of control (dose: 400.0 mg/kg/injection, schedule: Q01DX009 (ip), vehicle: saline); 122 % of control (dose: 400.0 mg/kg/injection, schedule: Q04DX003 (ip), vehicle: saline).

As for `CCC(C)C(=O)OC1C(=O)OC2CC3C(C)=CC(=O)C(O)C3(C)C3C4(O)OCC23C1C(C)C4O` (stereo unspecified), the T/C by setting is: (dose: 0.06 mg/kg/injection, schedule: Q01DX009 (ip), vehicle: saline with Tween-80) 117 % of control; (dose: 0.25 mg/kg/injection, schedule: Q01DX009 (ip), vehicle: saline) 121 % of control; (dose: 1.0 mg/kg/injection, schedule: Q01DX009 (ip), vehicle: saline) 111 % of control; under setting [1], 124 % of control; (dose: 8.0 mg/kg/injection, schedule: Q01DX009 (ip), vehicle: saline with Tween-80) 95 % of control.

For `CCCCNC(C)(C)CCl`, the T/C is, setting by setting: (dose: 1.56 mg/kg/injection, schedule: Q01DX009 (ip), vehicle: water) 95 % of control; (dose: 3.12 mg/kg/injection, schedule: Q01DX009 (ip), vehicle: water) 102 % of control; (dose: 3.12 mg/kg/injection, schedule: Q04DX003 (ip), vehicle: water) 106 % of control; (dose: 6.25 mg/kg/injection, schedule: Q04DX003 (ip), vehicle: water) 88 % of control; (dose: 12.5 mg/kg/injection, schedule: Q01DX009 (ip), vehicle: water) 95 % of control; (dose: 12.5 mg/kg/injection, schedule: Q04DX003 (ip), vehicle: water) 106 % of control. Further, the T/C (dose: 25.0 mg/kg/injection, schedule: Q01DX009 (ip), vehicle: water) is 111 % of control; the T/C (dose: 25.0 mg/kg/injection, schedule: Q04DX003 (ip), vehicle: water) was 100 % of control and 106 % of control; the T/C (dose: 50.0 mg/kg/injection, schedule: Q01DX009 (ip), vehicle: water) is 104 % of control.

Consider `Br/C(=N\Nc1nn[nH]n1)c1ccncc1`, for which the T/C (dose: 25.0 mg/kg/injection, schedule: Q01DX009 (ip), vehicle: saline) was 90 % of control; the T/C (dose: 50.0 mg/kg/injection, schedule: Q01DX009 (ip), vehicle: saline) was 100 % of control and 104 % of control; the T/C under setting [2] is 90 % of control and 100 % of control; the T/C under setting [3] is 95 % of control and 113 % of control.

For `COc1ccc(C2CCCCC2O)cc1` (stereo unspecified), the T/C is 100 % of control (dose: 100.0 mg/kg/injection, schedule: Q01DX009 (ip), vehicle: Klucel (hydroxypropylcellulose) (HPC)); 100 % of control (dose: 100.0 mg/kg/injection, schedule: Q04DX003 (ip), vehicle: Klucel (hydroxypropylcellulose) (HPC)); 100 % of control (dose: 200.0 mg/kg/injection, schedule: Q01DX009 (ip), vehicle: Klucel (hydroxypropylcellulose) (HPC)); 100 % of control (dose: 200.0 mg/kg/injection, schedule: Q04DX003 (ip), vehicle: Klucel (hydroxypropylcellulose) (HPC)); 110 % of control (dose: 400.0 mg/kg/injection, schedule: Q04DX003 (ip), vehicle: Klucel (hydroxypropylcellulose) (HPC)).

In the case of `CN(C)CCCN1c2ccc(O)cc2Sc2ccc(Cl)cc21`, the T/C by setting is: (dose: 3.1 mg/kg/injection, schedule: Q01DX009 (ip), vehicle: other) 90 % of control; (dose: 6.2 mg/kg/injection, schedule: Q01DX009 (ip), vehicle: other) 90 % of control; (dose: 12.5 mg/kg/injection, schedule: Q01DX009 (ip), vehicle: other) 104 % of control; (dose: 25.0 mg/kg/injection, schedule: Q01DX009 (ip), vehicle: other) 109 % of control; (dose: 25.0 mg/kg/injection, schedule: Q01DX009 (ip), vehicle: saline with Tween-80) 91 % of control; (dose: 50.0 mg/kg/injection, schedule: Q01DX009 (ip), vehicle: saline with Tween-80) 91 % of control. The T/C (dose: 100.0 mg/kg/injection, schedule: Q01DX009 (ip), vehicle: saline with Tween-80) was 100 % of control.
